Where two headings read alike, the source gives them in different places.
Columns and labels:
Type in all cases: cell-based
[1] = system: NCI-59 human cancer cell lines; assay: NCI-60 one-dose SRB screening, full panel and subpanels; conditions: Homo sapiens; for activity at 10 µM: mean over the full panel, 10 µM one dose, 48 h, SRB, read-out: growth percentage, Mean
Protocol: (§1) The structures of the synthesized compounds 6a–h, 12a–c, 11, 13a–c, and 14a–c were submitted to the National Cancer Institute’s Developmental Therapeutics Program (NCI-DTP), and all of them were selected for preliminary in vitro anticancer activity screening against NCI-59 human cancer cell lines at a concentration of 10 µM, using the sulforhodamine B (SRB) assay to determine the growth percentage and cell viability.
(§2) The in vitro NCI-60 cell line screening assay was conducted at the National Cancer Institute (NCI), Bethesda, USA against 59 cancer cell lines representing 9 types of cancers, as reported earlier. Briefly, the human cancer cell lines were grown in RPMI 1640 medium containing 5% fetal bovine serum and 2 mM L-glutamine and inoculated into 96-well microtiter plates in 100 μL (5000 to 40,000 cells/well). Then, the plates were incubated at 37 °C, 5% CO2, 95% air, and 100% relative humidity for 24 h. After that, two plates of each cell line were fixed in situ with TCA, to represent cell population at time zero (Tz). The tested compounds were dissolved in DMSO at 400-fold and added so that the final concentration became 10 μM. The plates were then incubated for an additional 48 h followed by the addition of cold TCA to terminate the assay in case of adherent cells. Then, the cells were fixed in situ by cold 50% (w/v) TCA (50 μL; final concentration, 10% TCA) and incubated for 1 h at 4 °C. After discarding the supernatant, the plates were washed 5 times with tap water and air dried. Sulforhodamine B (SRB) solution (100 μL) at 0.4% (w/v) in 1% HOAc was added to each well, and plates were incubated for 10 min. at rt. Then, washing with 1% acetic acid was conducted 5 times to remove the unbound dye followed by air drying. After that, 10 mM trizma base was added to solubilize the bound stain, and the absorbance was read on an automated plate reader at a wavelength of 515 nm. On the other hand, the methodology for suspension cells was the same except that 50 μL of 80% TCA (final concentration, 16% TCA) was gently added to terminate the assay by fixing settled cells at the bottom of the wells. Percentage growth inhibition (GI%) was calculated as follows:
(§3) Growth percentage=Ti (test growth in the presence of compound at 10 µM )−Tz (time zero)/C (control growth)−Tz (time zero)×100 for Ti ≥ Tz;
(§4) Growth percentage=Ti (test growth in the presence of compound at 10 µM )−Tz (time zero)/Tz (time zero)×100 for Ti < Tz.
(§5) where values of 100, 40, 0, −40, and −100 mean no GI, 60% GI, no net G, 40% lethality, and all cells are dead, respectively.
Data are expressed as a one-dose mean graph of growth percentages including the mean, delta, and range.

UO-31 = assay: NCI-60 one-dose SRB screening; conditions: Homo sapiens, UO-31, Renal Cancer, 10 µM one dose, 48 h, read-out: growth percentage
Protocol: as §1, §2, §3, §4, §5

NCI-H226 = assay: NCI-60 one-dose SRB screening; conditions: Homo sapiens, NCI-H226, Non-Small Cell Lung Cancer, 10 µM one dose, 48 h, read-out: growth percentage
Protocol: as §1, §2, §3, §4, §5

T-47D = assay: NCI-60 one-dose SRB screening; conditions: Homo sapiens, T47D, Breast Cancer, 10 µM one dose, 48 h, read-out: growth percentage
Protocol: as §1, §2, §3, §4, §5

LOX IMVI = assay: NCI-60 one-dose SRB screening; conditions: Homo sapiens, Melanoma, 10 µM one dose, 48 h, read-out: growth percentage
Protocol: as §1, §2, §3, §4, §5

M14 = assay: NCI-60 one-dose SRB screening; conditions: Homo sapiens, M14, Melanoma, 10 µM one dose, 48 h, read-out: growth percentage
Protocol: as §1, §2, §3, §4, §5

SK-MEL-28 = assay: NCI-60 one-dose SRB screening; conditions: Homo sapiens, SK-MEL-28, Melanoma, 10 µM one dose, 48 h, read-out: growth percentage
Protocol: as §1, §2, §3, §4, §5

DU-145 = assay: NCI-60 one-dose SRB screening; conditions: Homo sapiens, DU-145, Prostate Cancer, 10 µM one dose, 48 h, read-out: growth percentage
Protocol: as §1, §2, §3, §4, §5

MALME-3M = assay: NCI-60 one-dose SRB screening; conditions: Homo sapiens, Melanoma, 10 µM one dose, 48 h, read-out: growth percentage
Protocol: as §1, §2, §3, §4, §5

A549/ATCC = assay: NCI-60 one-dose SRB screening; conditions: Homo sapiens, Non-Small Cell Lung Cancer, 10 µM one dose, 48 h, read-out: growth percentage
Protocol: as §1, §2, §3, §4, §5

786-0 = assay: NCI-60 one-dose SRB screening; conditions: Homo sapiens, 786-0, Renal Cancer, 10 µM one dose, 48 h, read-out: growth percentage
Protocol: as §1, §2, §3, §4, §5

MDA-MB-231/ATCC = assay: NCI-60 one-dose SRB screening; conditions: Homo sapiens, Breast Cancer, 10 µM one dose, 48 h, read-out: growth percentage
Protocol: as §1, §2, §3, §4, §5

OVCAR-8 = assay: NCI-60 one-dose SRB screening; conditions: Homo sapiens, OVCAR-8, Ovarian Cancer, 10 µM one dose, 48 h, read-out: growth percentage
Protocol: as §1, §2, §3, §4, §5

HCT-15 = assay: NCI-60 one-dose SRB screening; conditions: Homo sapiens, HCT-15, Colon Cancer, 10 µM one dose, 48 h, read-out: growth percentage
Protocol: as §1, §2, §3, §4, §5

SK-MEL-5 = assay: NCI-60 one-dose SRB screening; conditions: Homo sapiens, SK-MEL-5, Melanoma, 10 µM one dose, 48 h, read-out: growth percentage
Protocol: as §1, §2, §3, §4, §5

NCI-H522 = assay: NCI-60 one-dose SRB screening; conditions: Homo sapiens, NCI-H522, Non-Small Cell Lung Cancer, 10 µM one dose, 48 h, read-out: growth percentage
Protocol: as §1, §2, §3, §4, §5

CAKI-1 = assay: NCI-60 one-dose SRB screening; conditions: Homo sapiens, CAKI-1, Renal Cancer, 10 µM one dose, 48 h, read-out: growth percentage
Protocol: as §1, §2, §3, §4, §5

MOLT-4 = assay: NCI-60 one-dose SRB screening; conditions: Homo sapiens, MOLT-4, Leukemia, 10 µM one dose, 48 h, read-out: growth percentage
Protocol: as §1, §2, §3, §4, §5

TK-10 = assay: NCI-60 one-dose SRB screening; conditions: Homo sapiens, TK-10, Renal Cancer, 10 µM one dose, 48 h, read-out: growth percentage
Protocol: as §1, §2, §3, §4, §5

RXF 393 = assay: NCI-60 one-dose SRB screening; conditions: Homo sapiens, RXF 393, Renal Cancer, 10 µM one dose, 48 h, read-out: growth percentage
Protocol: as §1, §2, §3, §4, §5

U251 = assay: NCI-60 one-dose SRB screening; conditions: Homo sapiens, U-251, U251, CNS Cancer, 10 µM one dose, 48 h, read-out: growth percentage
Protocol: as §1, §2, §3, §4, §5

IGROV1 = assay: NCI-60 one-dose SRB screening; conditions: Homo sapiens, IGROV-1, IGROV1, Ovarian Cancer, 10 µM one dose, 48 h, read-out: growth percentage
Protocol: as §1, §2, §3, §4, §5

SMILES: Cc1nc(Nc2ccc(OCc3c(-c4ccccc4)no[n+]3[O-])cc2)c2c(C)nn(-c3ccc(Br)cc3)c2n1 [6h, 3-((4-((1-(4-bromophenyl)-3,6-dimethyl-1H-pyrazolo[3,4-d]pyrimidin-4-yl)amino)phenoxy)methyl)-4-phenyl-1,2,5-oxadiazole 2-oxide]
- inhibition at 10 µM ([1]; full NCI-59 panel, read-out: mean growth inhibition % (MGI%, GI%)): 1.58 to 4.57%
- activity at 10 µM [1]: 95.4%
- activity at 10 µM (UO-31): 74%
- activity at 10 µM (NCI-H226): 109%
- activity at 10 µM (T-47D): 81.4%
- activity at 10 µM (LOX IMVI): 98.9%
- activity at 10 µM (M14): 89.5%
- activity at 10 µM (SK-MEL-28): 101%
- activity at 10 µM (DU-145): 102%
- activity at 10 µM (MALME-3M): 96%
- activity at 10 µM (A549/ATCC): 96.4%
- activity at 10 µM (786-0): 107%
- activity at 10 µM (MDA-MB-231/ATCC): 100%
- activity at 10 µM (OVCAR-8): 102%
- activity at 10 µM (HCT-15): 79%
- activity at 10 µM (SK-MEL-5): 91.5%
- activity at 10 µM (NCI-H522): 84%
- activity at 10 µM (CAKI-1): 83.8%
- activity at 10 µM (MOLT-4): 87.6%
- activity at 10 µM (TK-10): 114%
- activity at 10 µM (RXF 393): 136%
- activity at 10 µM (U251): 96.4%
- activity at 10 µM (IGROV1): 99%

SMILES: Cc1nn(-c2ccccc2)c2nc(C(F)(F)F)nc(Nc3ccc(NCc4c(-c5ccccc5)no[n+]4[O-])cc3)c12 [12a, 3-(((4-((3-methyl-1-phenyl-6-(trifluoromethyl)-1H-pyrazolo[3,4-d]pyrimidin-4-yl)amino)phenyl)amino)methyl)-4-phenyl-1,2,5-oxadiazole 2-oxide]
- activity at 10 µM [1]: 76.8%
- activity at 10 µM (UO-31): 57.5%
- activity at 10 µM (NCI-H226): 85.6%
- activity at 10 µM (T-47D): 80.5%
- activity at 10 µM (LOX IMVI): 58%
- activity at 10 µM (M14): 68.7%
- activity at 10 µM (SK-MEL-28): 92.4%
- activity at 10 µM (DU-145): 82.2%
- activity at 10 µM (MALME-3M): 91%
- activity at 10 µM (A549/ATCC): 76.6%
- activity at 10 µM (786-0): 92.4%
- activity at 10 µM (MDA-MB-231/ATCC): 84.4%
- activity at 10 µM (OVCAR-8): 89.7%
- activity at 10 µM (HCT-15): 42%
- activity at 10 µM (SK-MEL-5): 70.3%
- activity at 10 µM (NCI-H522): 91.4%
- activity at 10 µM (CAKI-1): 53%
- activity at 10 µM (MOLT-4): 56.4%
- activity at 10 µM (TK-10): 94.4%
- activity at 10 µM (RXF 393): 86.8%
- activity at 10 µM (U251): 69.9%
- activity at 10 µM (IGROV1): 77.9%

SMILES: [O-][n+]1onc(-c2ccccc2)c1CNc1ccc(Nc2nc(C(F)(F)F)nc3c2cnn3-c2ccc(Br)cc2)cc1 [12b, 3-(((4-((1-(4-bromophenyl)-6-(trifluoromethyl)-1H-pyrazolo[3,4-d]pyrimidin-4-yl)amino)phenyl)amino)methyl)-4-phenyl-1,2,5-oxadiazole 2-oxide]
- inhibition at 10 µM ([1]; CNS cancer cell lines, read-out: growth-inhibitory % activity, up to): ≤ 45%
- inhibition at 10 µM ([1]; breast cancer cells, read-out: growth-inhibitory % activity, up to): ≤ 61%
- inhibition at 10 µM ([1]; colon cancer cell lines, read-out: growth-inhibitory % activity, up to): ≤ 62%
- inhibition at 10 µM ([1]; leukemia cell lines, read-out: growth-inhibitory % activity, up to): ≤ 77%
- inhibition at 10 µM ([1]; melanoma cell lines, read-out: growth-inhibitory % activity, up to): ≤ 72%
- inhibition at 10 µM ([1]; non-small cell lung cancer cell lines, read-out: growth-inhibitory % activity, up to): ≤ 64%
- inhibition at 10 µM ([1]; ovarian cancer cell lines, read-out: growth-inhibitory % activity, up to): ≤ 40%
- inhibition at 10 µM ([1]; prostate cancer cell lines, read-out: growth-inhibitory % activity, up to): ≤ 52%
- inhibition at 10 µM ([1]; renal cancer cell lines, read-out: growth-inhibitory % activity, up to): ≤ 69%
- activity at 10 µM [1]: 66.8%
- activity at 10 µM (UO-31): 43.4%
- activity at 10 µM (NCI-H226): 77%
- activity at 10 µM (T-47D): 68.8%
- activity at 10 µM (LOX IMVI): 27.9%
- activity at 10 µM (M14): 68.2%
- activity at 10 µM (SK-MEL-28): 89.2%
- activity at 10 µM (DU-145): 70.8%
- activity at 10 µM (MALME-3M): 93.5%
- activity at 10 µM (A549/ATCC): 64.4%
- activity at 10 µM (786-0): 67.2%
- activity at 10 µM (MDA-MB-231/ATCC): 69.7%
- activity at 10 µM (OVCAR-8): 72.8%
- activity at 10 µM (HCT-15): 38.1%
- activity at 10 µM (SK-MEL-5): 86%
- activity at 10 µM (NCI-H522): 72.6%
- activity at 10 µM (CAKI-1): 31.1%
- activity at 10 µM (MOLT-4): 47%
- activity at 10 µM (TK-10): 86.8%
- activity at 10 µM (RXF 393): 51.2%
- activity at 10 µM (U251): 73.2%
- activity at 10 µM (IGROV1): 60.1%
